Results as given in publication PMC9457941, “Synthesis and Kinase Inhibitory Potencies of Pyrazolo[3,4-g]isoquinolines” (Molecules, 2022).

Assays:
panel of 486 kinases = conditions: cited from earlier work
GSK3β = molecular target: T1, GSK3β (Homo sapiens, UniProt P49841); assay: ADP-Glo kinase inhibition assay, GSK3β; format: biochemical; conditions: for IC50: 10 μM ATP, duplicate, read-out: GSK3 IC50; for remaining activity at 1 µM: read-out: GSK3 % residual activity at 1 μM; for remaining activity at 10 µM: read-out: GSK3 % residual activity at 10 μM
T1 construct: host or cells: Sf9 insect cells (baculovirus)
T1 sequence (P49841 whole entry): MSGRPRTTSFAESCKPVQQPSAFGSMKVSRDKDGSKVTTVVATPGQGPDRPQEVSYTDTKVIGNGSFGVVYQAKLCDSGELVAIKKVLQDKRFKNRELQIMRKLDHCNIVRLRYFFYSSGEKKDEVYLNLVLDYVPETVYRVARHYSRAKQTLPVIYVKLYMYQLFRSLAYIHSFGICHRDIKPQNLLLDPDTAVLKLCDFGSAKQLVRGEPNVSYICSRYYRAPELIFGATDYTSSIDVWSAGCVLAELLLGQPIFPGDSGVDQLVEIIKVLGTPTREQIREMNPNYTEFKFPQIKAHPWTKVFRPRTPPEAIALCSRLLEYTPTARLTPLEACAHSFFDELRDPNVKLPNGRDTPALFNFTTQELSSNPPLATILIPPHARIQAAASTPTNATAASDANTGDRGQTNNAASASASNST
Protocol: (§1) Kinase enzymatic activities were assayed in 384 well plates using the ADP-GloTM assay kit (Promega, Madison, WI, USA) according to the manufacturer’s guidance. Briefly, the reactions were carried out in a final volume of 6 μL for 30 min at 30 °C in an appropriate kinase buffer (10 mM MgCl2, 1 mM EGTA, 1 mM DTT, 25 mM Tris-HCl pH 7.5, 50 μg/mL heparin), with either protein or peptide as substrate in the presence of 10 μM ATP (40 mM Tris pH 7.5, 20 mM MgCl2 and 0.1 mg/mL of BSA). Afterward, 6 μL of ADP-GloTM Kinase Reagent was added to stop the kinase reaction. After an incubation time of 50 min at room temperature (RT), 12 μL of Kinase Detection Reagent was added for 1 h at RT. The transmitted signal was measured using the Envision (Perkin Elmer, Waltham, MA, USA) microplate luminometer and expressed in relative light unit (RLU). In order to determine the half maximal inhibitory concentration (IC50), the assays were performed in duplicate in the absence or presence of increasing doses of the tested compounds. GraphPad Prism6 software (GraphPad Software, San Diego, CA, USA) was used to fit dose–response curves and to determine the IC50 values. Kinase activities are expressed in the percentage of maximal activity, i.e., measured in the absence of an inhibitor. Peptide substrates were obtained from Proteogenix (Schiltigheim, France).
(§2) The following protein kinases were analyzed in this study: CDK5/p25 (human, recombinant, expressed in bacteria) was assayed with 0.8 μg/μL of histone H1 as substrate; CDK9/CyclinT (human, recombinant, expressed by baculovirus in Sf9 insect cells) were assayed with 0.27 μg/μL of the following peptide: […], as substrate; CK1ε (human, recombinant, expressed by baculovirus in Sf9 insect cells) was assayed with 0.022 μg/μL of the following peptide: […]pAYSITA (“Sp” stands for phosphorylated serine) as CK1-specific substrate; GSK3β (human, recombinant, expressed by baculovirus in Sf9 insect cells) were assayed with 0.010 μg/μL of GS-1 peptide, a GSK-3-selective substrate ([…]pEDEEE); Haspin-kd (human, kinase domain, amino acids 470–798, recombinant, expressed in bacteria) was assayed with 0.007 μg/μL of histone H3 (1–21) peptide ([…]) as substrate; Pim-1 (human proto-oncogene, recombinant, expressed in bacteria) was assayed with 0.8 μg/μL of histone H1 as substrate; MmCLK1 (from Mus musculus, recombinant, expressed in bacteria) was assayed with 0.027 μg/μL of the following peptide: […] as substrate; RnDYRK1A-kd (Rattus norvegicus, amino acids 1–499 including the kinase domain, recombinant, expressed in bacteria, DNA vector kindly provided by Dr. W. Becker, Aachen, Germany) was assayed with 0.033 μg/μL of the following peptide: […] as substrate.

CK1ε = molecular target: T2, CK1ε (Homo sapiens, UniProt P49674); assay: ADP-Glo kinase inhibition assay, CK1ε; format: biochemical; conditions: 10 μM ATP, duplicate; for remaining activity at 1 µM: 1 μM compound, read-out: CK1 % residual activity at 1 μM; for remaining activity at 10 µM: 10 μM compound, read-out: CK1 % residual activity at 10 μM
T2 construct: host or cells: Sf9 insect cells (baculovirus)
T2 sequence (P49674 whole entry): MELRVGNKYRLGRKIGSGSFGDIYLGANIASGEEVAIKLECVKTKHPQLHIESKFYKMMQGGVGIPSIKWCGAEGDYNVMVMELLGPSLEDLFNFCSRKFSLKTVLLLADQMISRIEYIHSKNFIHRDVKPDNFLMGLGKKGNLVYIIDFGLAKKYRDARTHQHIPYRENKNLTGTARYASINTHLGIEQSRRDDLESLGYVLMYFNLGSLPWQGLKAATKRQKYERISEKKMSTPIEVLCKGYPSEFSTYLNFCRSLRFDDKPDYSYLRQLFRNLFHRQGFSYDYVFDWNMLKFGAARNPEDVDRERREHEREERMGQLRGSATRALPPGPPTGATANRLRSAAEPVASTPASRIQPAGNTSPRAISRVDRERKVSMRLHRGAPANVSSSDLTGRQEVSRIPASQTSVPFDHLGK
Protocol: as §1, §2

[1] = molecular target: T3, Haspin-kd (human, kinase domain, amino acids 470–798) (Homo sapiens, UniProt Q8TF76); assay: ADP-Glo kinase inhibition assay, Haspin; format: biochemical; conditions: for IC50: 10 μM ATP, duplicate; for remaining activity at 1 µM: read-out: Haspin % residual activity at 1 μM; for remaining activity at 10 µM: read-out: Haspin % residual activity at 10 μM
T3 construct: Haspin-kd (human, kinase domain, amino acids 470–798, recombinant, expressed in bacteria); host or cells: bacteria
T3 sequence (Q8TF76 470-798): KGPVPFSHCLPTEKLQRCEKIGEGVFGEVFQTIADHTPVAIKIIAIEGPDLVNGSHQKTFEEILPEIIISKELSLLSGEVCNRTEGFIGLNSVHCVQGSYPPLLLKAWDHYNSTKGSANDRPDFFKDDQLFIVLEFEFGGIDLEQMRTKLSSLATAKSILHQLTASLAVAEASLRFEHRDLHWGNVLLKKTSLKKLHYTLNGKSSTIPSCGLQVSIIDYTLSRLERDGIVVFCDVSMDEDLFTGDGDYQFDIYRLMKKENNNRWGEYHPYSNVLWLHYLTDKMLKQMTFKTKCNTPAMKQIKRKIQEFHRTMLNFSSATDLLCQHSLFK
Protocol: as §1

MmCLK1 = molecular target: T4, MmCLK1 (Mus musculus, UniProt P22518); assay: ADP-Glo kinase inhibition assay, CLK1; format: biochemical; conditions: for IC50: 10 μM ATP, duplicate, read-out: CLK1 IC50; for remaining activity at 1 µM: read-out: CLK1 % residual activity at 1 μM; for remaining activity at 10 µM: read-out: CLK1 % residual activity at 10 μM
T4 construct: host or cells: bacteria
T4 sequence (P22518 whole entry): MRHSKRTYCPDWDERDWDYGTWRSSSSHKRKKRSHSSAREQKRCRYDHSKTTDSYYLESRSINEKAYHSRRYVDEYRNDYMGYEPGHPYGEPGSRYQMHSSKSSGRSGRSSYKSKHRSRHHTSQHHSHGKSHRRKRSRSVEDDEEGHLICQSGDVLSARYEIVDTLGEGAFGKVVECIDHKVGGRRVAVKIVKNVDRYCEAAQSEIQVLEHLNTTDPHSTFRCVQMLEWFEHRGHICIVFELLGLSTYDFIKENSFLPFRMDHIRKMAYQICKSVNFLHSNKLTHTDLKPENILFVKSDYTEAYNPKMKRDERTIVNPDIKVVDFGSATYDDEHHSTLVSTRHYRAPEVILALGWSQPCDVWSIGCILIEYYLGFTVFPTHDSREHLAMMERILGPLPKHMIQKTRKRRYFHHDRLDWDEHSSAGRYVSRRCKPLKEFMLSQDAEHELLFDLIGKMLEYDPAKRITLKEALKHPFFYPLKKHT
Protocol: as §1, §2

CDK9/CyclinT = molecular target: T5, CDK9/CyclinT (Homo sapiens, UniProt P50750); assay: ADP-Glo kinase inhibition assay, CDK9/CyclinT; format: biochemical; conditions: for IC50: 10 μM ATP, duplicate; for remaining activity at 1 µM: read-out: CDK9 % residual activity at 1 μM; for remaining activity at 10 µM: read-out: CDK9 % residual activity at 10 μM
T5 construct: host or cells: Sf9 insect cells (baculovirus)
T5 sequence (O60563 whole entry): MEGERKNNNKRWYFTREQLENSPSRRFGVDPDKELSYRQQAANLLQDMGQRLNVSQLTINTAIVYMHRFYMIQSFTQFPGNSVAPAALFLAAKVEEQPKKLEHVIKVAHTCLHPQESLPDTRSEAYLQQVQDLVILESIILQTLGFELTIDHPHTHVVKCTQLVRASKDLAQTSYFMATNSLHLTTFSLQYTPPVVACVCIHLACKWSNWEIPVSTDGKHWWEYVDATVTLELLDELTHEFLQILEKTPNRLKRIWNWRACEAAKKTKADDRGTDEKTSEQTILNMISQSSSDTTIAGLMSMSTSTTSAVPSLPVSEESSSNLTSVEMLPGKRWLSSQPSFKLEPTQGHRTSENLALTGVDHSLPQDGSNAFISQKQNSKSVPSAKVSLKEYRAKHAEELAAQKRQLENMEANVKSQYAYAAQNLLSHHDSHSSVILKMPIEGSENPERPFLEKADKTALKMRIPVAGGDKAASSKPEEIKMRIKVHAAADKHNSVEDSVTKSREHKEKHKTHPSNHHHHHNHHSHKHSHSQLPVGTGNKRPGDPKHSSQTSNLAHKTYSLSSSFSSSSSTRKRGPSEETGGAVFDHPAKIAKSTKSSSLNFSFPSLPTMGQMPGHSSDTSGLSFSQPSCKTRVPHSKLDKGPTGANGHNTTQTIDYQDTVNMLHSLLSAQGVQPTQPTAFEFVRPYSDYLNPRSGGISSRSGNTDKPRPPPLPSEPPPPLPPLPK
T5 sequence (P50750 whole entry): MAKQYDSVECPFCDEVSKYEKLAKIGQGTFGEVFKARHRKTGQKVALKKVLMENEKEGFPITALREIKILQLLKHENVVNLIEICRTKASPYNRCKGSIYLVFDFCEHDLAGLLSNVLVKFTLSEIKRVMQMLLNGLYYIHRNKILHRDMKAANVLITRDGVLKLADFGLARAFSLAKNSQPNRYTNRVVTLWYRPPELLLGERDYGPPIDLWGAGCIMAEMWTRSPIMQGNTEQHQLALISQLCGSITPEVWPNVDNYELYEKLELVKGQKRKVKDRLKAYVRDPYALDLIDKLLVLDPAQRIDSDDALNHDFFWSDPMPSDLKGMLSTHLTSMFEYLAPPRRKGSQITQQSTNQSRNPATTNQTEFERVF
Protocol: as §1, §2

Pim-1 = molecular target: T6, Pim-1 (Homo sapiens, UniProt P11309); assay: ADP-Glo kinase inhibition assay, Pim-1; format: biochemical; conditions: 10 μM ATP, duplicate; for remaining activity at 1 µM: 1 μM compound, read-out: PIM1 % residual activity at 1 μM; for remaining activity at 10 µM: 10 μM compound, read-out: PIM1 % residual activity at 10 μM
T6 construct: host or cells: bacteria
T6 sequence (P11309 whole entry): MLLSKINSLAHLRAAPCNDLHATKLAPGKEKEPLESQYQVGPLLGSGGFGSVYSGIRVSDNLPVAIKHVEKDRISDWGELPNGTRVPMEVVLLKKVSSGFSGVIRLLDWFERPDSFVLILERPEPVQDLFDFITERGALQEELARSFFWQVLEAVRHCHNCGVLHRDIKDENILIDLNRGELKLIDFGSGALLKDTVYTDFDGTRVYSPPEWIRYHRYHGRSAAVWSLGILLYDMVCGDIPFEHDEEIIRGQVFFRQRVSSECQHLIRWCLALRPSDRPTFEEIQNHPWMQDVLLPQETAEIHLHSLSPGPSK
Protocol: as §1, §2

CDK5/p25 = molecular target: T7, CDK5/p25 (Homo sapiens, UniProt Q00535); assay: ADP-Glo kinase inhibition assay, CDK5/p25; format: biochemical; conditions: for remaining activity at 1 µM: read-out: CDK5 % residual activity at 1 μM; for remaining activity at 10 µM: read-out: CDK5 % residual activity at 10 μM
T7 construct: host or cells: bacteria
T7 sequence (Q00535 whole entry): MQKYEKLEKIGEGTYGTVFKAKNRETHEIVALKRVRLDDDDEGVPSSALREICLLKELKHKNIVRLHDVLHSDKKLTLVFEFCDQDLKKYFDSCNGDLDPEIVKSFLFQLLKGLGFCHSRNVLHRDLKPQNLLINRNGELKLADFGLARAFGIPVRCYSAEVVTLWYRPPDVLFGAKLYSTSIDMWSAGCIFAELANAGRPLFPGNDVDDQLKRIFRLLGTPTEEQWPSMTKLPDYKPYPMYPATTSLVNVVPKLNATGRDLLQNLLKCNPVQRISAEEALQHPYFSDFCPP
T7 sequence (Q15078 99-307, further chain): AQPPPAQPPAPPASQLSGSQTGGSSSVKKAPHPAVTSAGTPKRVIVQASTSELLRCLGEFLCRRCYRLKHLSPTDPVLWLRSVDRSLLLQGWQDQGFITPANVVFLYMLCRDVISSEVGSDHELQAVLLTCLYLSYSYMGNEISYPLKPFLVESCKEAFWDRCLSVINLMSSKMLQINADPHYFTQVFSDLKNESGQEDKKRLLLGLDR
Protocol: as §1, §2

RnDYRK1A-kd = molecular target: T8, RnDYRK1A-kd (Rattus norvegicus, UniProt Q63470); assay: ADP-Glo kinase inhibition assay, DYRK1A; format: biochemical; conditions: for remaining activity at 1 µM: read-out: DYRK1A % residual activity at 1 μM; for remaining activity at 10 µM: read-out: DYRK1A % residual activity at 10 μM; for IC50: 10 μM ATP, duplicate, read-out: DYRK1A IC50
T8 construct: RnDYRK1A-kd (Rattus norvegicus, amino acids 1–499 including the kinase domain, recombinant, expressed in bacteria); made in house; host or cells: bacteria
Protocol: as §1, §2

[2] = tested on: Haspin, CLK1, DYRK1A, CDK9/Cyclin T, GSK-3β, CK1ε, CDK5/p25 and Pim1; assay: Panel of eight protein kinases (ADP-Glo), statements across kinases; format: biochemical; conditions: 1 μM compound
Protocol: It should be noted that due to solubility issues, compound 1a could not be tested; only the corresponding methane sulfonate salt 1a’ was evaluated. The percentage of residual kinase activity was evaluated at 10 μM and 1 μM compound concentrations. […].
as §1, with “GraphPad Prism6 software (GraphPad Software, San Diego, CA, USA) was used to fit dose–response curves and to determine the IC50 values.” left out, “Peptide substrates were obtained from Proteogenix (Schiltigheim, France).” left out

SMILES	melting point [°C]	remaining activity at 1 µM (GSK3β) [%]	remaining activity at 10 µM (GSK3β) [%]	remaining activity at 1 µM (CK1ε) [%]	remaining activity at 10 µM (CK1ε) [%]	IC50 [1] [nM]	remaining activity at 1 µM [1] [%]	remaining activity at 10 µM [1] [%]	IC50 (MmCLK1) [nM]	remaining activity at 1 µM (MmCLK1) [%]	remaining activity at 10 µM (MmCLK1) [%]	IC50 (CDK9/CyclinT) [nM]	remaining activity at 1 µM (CDK9/CyclinT) [%]	remaining activity at 10 µM (CDK9/CyclinT) [%]	remaining activity at 1 µM (Pim-1) [%]	remaining activity at 10 µM (Pim-1) [%]	remaining activity at 1 µM (CDK5/p25) [%]	remaining activity at 10 µM (CDK5/p25) [%]	remaining activity at 1 µM (RnDYRK1A-kd) [%]	remaining activity at 10 µM (RnDYRK1A-kd) [%]	other results
COc1ncc2cc3cnccc3c([N+](=O)[O-])c2n1 [I]	–	–	–	–	–	–	–	–	–	–	–	–	–	–	–	–	–	–	–	–	kinases inhibited when tested on a large panel of 486 kinases (panel of 486 kinases): 12%
O=[N+]([O-])c1c2ccncc2cc2cn[nH]c12	> 250	–	–	–	–	–	–	–	–	–	–	–	–	–	–	–	–	–	–	–	–
CCn1ncc2c(C3CC3)c3cnccc3c([N+](=O)[O-])c21 [Compound 3d, 4-Cyclopropyl-1-ethyl-9-nitro-1H-pyrazolo[3,4-g]isoquinoline]	97	17	5	61	15	312	21	12	229	24	5	266	33	11	99	82	67	24	67	29	IC50 (GSK3β): 226 nM
Nc1c2ccncc2cc2cn[nH]c12 [Compound 2a, 1-H-pyrazolo[3,4-g]isoquinolin-9-amine]	> 250	48	18	71	28	127	13	8	296	20	8	430	22	10	100	90	45	17	32	12	IC50 (GSK3β): 411 nM; Selectivity Index (SI) Haspin vs. CLK1 = CLK1 IC50/Haspin IC50 ([1]; Haspin vs. CLK1): 2.3; kinases inhibited to more than 50% at 1 μM [2]: six out of eight; IC50 (CDK5/p25; 10 μM ATP, duplicate): 927 nM; IC50 (RnDYRK1A-kd): 600 nM
CS(=O)(=O)O.O=[N+]([O-])c1c2ccncc2cc2cn[nH]c12	> 250	–	–	–	–	–	–	–	–	–	–	–	–	–	–	–	–	–	–	–	–
CCn1ncc2cc3cncc(Br)c3c([N+](=O)[O-])c21 [Compound 4, 8-Bromo-1-ethyl-9-nitro-1H-pyrazolo[3,4-g]isoquinoline]	–	88	80	100	80	–	77	23	–	42	18	–	59	18	77	54	92	32	52	25	inhibition at 1 µM ([1]; read-out: Haspin inhibition at 1 μM, 1 μM compound, % inhibition): 23%
Cn1ncc2cc3cnccc3c(N)c21 [Compound 2b, 1-Methyl-1H-pyrazolo[3,4-g]isoquinolin-9-amine]	174 to 175	68	44	77	42	112	10	14	548	36	8	578	39	15	91	71	72	60	18	5	Selectivity Index (SI) Haspin vs. DYRK1A ([1]; Haspin vs. DYRK1A, which was more inhibited than CLK1): 2.4; IC50 (RnDYRK1A-kd): 273 nM
CCCc1c2cnccc2c([N+](=O)[O-])c2c1cnn2CC [Compound 3c, 1-Ethyl-9-nitro-4-propyl-1H-pyrazolo[3,4-g]isoquinoline]	–	12	5	81	35	497	25	17	363	23	4	322	18	4	86	88	54	10	95	41	IC50 (GSK3β): 218 nM
